Assays:
[1] = Phase solubility diagram of container with excess camptothecin; type: physicochemical; conditions: 0.01 M DCl, pD 2.0
[2] = Phase solubility diagram of container with excess cinnarizine; type: physicochemical; conditions: 50 mM NaOAc buffer, pD 4.74
[3] = cited from earlier work
[4] = Phase solubility diagram of container with excess albendazole; type: physicochemical; conditions: 50 mM NaOAc buffer, pD 4.74

Cucurbit[7]uril [CB[7]]
affinity toward camptothecin (slope of phase solubility diagram), CB[7] versus 1 [1]: comparable affinity | maximum [cinnarizine] obtained with container [2]: 13.7 mM | solubility in water [3]: 20 to 30 mM | affinity toward albendazole (slope of phase solubility diagram), CB[7] versus 1 [4]: comparable
